Data as given in publication PMC10016662 (PLOS Pathogens, 2023).
Where two headings read alike, the source gives them in different places.

Target: T1, HRTV Gc (Heartland virus, UniProt J3WAX0)
T1 construct: gene GP
Assay: biochemical
Assay type: binding

T1 sequence (J3WAX0 567-999 limits assumed): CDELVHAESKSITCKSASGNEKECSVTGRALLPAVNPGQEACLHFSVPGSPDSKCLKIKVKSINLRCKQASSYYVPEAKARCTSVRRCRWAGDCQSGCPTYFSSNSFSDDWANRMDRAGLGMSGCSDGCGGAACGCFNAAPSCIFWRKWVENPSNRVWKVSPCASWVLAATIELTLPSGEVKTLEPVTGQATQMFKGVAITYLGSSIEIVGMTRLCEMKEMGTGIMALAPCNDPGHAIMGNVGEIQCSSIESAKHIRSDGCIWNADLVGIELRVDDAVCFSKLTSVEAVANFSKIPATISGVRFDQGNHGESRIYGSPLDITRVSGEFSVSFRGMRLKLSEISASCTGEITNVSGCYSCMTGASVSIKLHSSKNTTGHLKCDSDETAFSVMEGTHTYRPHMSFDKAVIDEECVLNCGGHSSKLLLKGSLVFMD

Compound | Kd [nM] | Kd (read-out: KD) [nM]
CCCCCCCC/C=C\CCCCCCCC(=O)OC[C@H](COP(=O)([O-])OCC[N+](C)(C)C)OC(=O)CCCCCCC/C=C\CCCCCCCC [DOPC] | 2100 | 
GlcCer |  | < 1
GalCer |  | 600
